Tests used:
Assay type in all cases: functional
[1] = test system: Onchocerca lienalis; assay: MMV: Percent motility assay at a compound concentration of 7.8e-7 M. Activity score legend: 3: Active, 2: Moderately active; 1: Inactive, 0: Toxic; settings: at 0.78 µM
[2] = test system: Onchocerca lienalis; assay: MMV: Percent motility assay at a compound concentration of 1.25e-5 M. Activity score legend: 3: Active, 2: Moderately active; 1: Inactive, 0: Toxic; settings: at 12.5 µM
[3] = test system: Onchocerca lienalis; assay: MMV: Percent motility assay at a compound concentration of 1.9e-7 M. Activity score legend: 3: Active, 2: Moderately active; 1: Inactive, 0: Toxic; settings: at 0.19 µM
[4] = test system: Onchocerca lienalis; assay: MMV: Percent motility assay at a compound concentration of 3.1e-6 M. Activity score legend: 3: Active, 2: Moderately active; 1: Inactive, 0: Toxic; settings: at 3.1 µM

| SMILES | Motility [1] | Motility [2] | Motility [3] | Motility [4] |
| --- | --- | --- | --- | --- |
| CCN1CCCC1CNc1[nH]cnc2c3cc(Cl)ccc3nc1-2 (stereo unspecified) | 100% | 100% | 100% | 100% |
| C[n+]1c2ccccc2nc2ccc(NCCO)cc21 | 100% | 100% | 100% | 100% |
| CCN(CC)CCNc1ncnc2c1[nH]c1ccc(Cl)cc12 | 100% | 100% | 100% | 100% |
| CCOC(=O)c1cnc2ccc(CC)cc2c1O | 100% | 100% | 100% | 100% |
| Cc1ccc(-c2cc3c(nn2)-c2ccccc2C3=O)cc1 | 100% | 100% | 100% | 100% |
| Cc1ccc(Nc2nc(-c3ccccn3)cs2)cc1 | 100% | 100% | 100% | 100% |
| COc1ccc(-n2ccnc2SCC(=O)Nc2cc(C)ccc2C)c(OC)c1 | 100% | 100% | 100% | 100% |
| CCN1CCN(Cc2ccc(NC(=O)c3cc4ccc5cccnc5c4[nH]3)cc2)CC1 | 100% | 100% | 100% | 100% |
| O=C(NCc1ccco1)C1CCN(S(=O)(=O)c2ccc(Cl)cc2)CC1 | 100% | 100% | 100% | 100% |
| c1ccc(-c2ccc(-c3nc4ccccc4[nH]3)cc2)cc1 | 100% | 66.6% | 100% | 100% |
| CCC(C)NCC(O)(c1ccc(Cl)cc1)c1ccc(Cl)cc1 (stereo unspecified) | 100% | 100% | 100% | 100% |
| CCOc1cc2c(cc1OCC)C(c1cc(OC)c(O)cc1Cl)NCC2 (stereo unspecified) | 100% | 100% | 100% | 100% |
| COCCNC(=O)c1ccc(OC2CCN(Cc3ccc(F)c(F)c3)CC2)c(Cl)c1 | 100% | 46.6% | 100% | 100% |
| O=C(CCc1ccco1)NC1CCN(CC2(c3ccc(Cl)cc3)CCC2)CC1 | 100% | 100% | 100% | 100% |
| COc1cccc(C=Cc2nc(=O)c3ccccc3o2)c1OC | 100% | 100% | 100% | 100% |
| COc1ccc(C(=O)Nc2nonc2-c2ccc(OC)c(OC)c2)cc1Cl | 100% | 100% | 100% | 100% |
| COCCN(C(=O)Cc1cccs1)C(C(=O)NCc1ccc(OC)cc1)c1ccc(C(C)C)cc1 (stereo unspecified) | 100% | 46.6% | 100% | 100% |
| COc1ccc2c(c1)OC(O)(C(F)(F)C(F)(F)F)CC2=O (stereo unspecified) | 100% | 100% | 100% | 100% |
| FC(F)(F)c1cccc(CNC2CCN(CCc3ccccc3)CC2)c1 | 100% | 100% | 100% | 100% |
| Oc1ccc(Cl)cc1CNc1nc2ccccc2[nH]1 | 100% | 66.6% | 100% | 100% |
| CCOc1cc(Cl)c(C(C)NC(=O)c2ccccc2)cc1OCC (stereo unspecified) | 100% | 100% | 100% | 100% |
| Cc1ccc(-c2cc3nc4c(c(O)n3n2)CCCC4)cc1 | 100% | 100% | 100% | 100% |
| O=C(c1ccccc1F)N(Cc1ccc(Cl)cc1)c1ccccn1 | 100% | 100% | 100% | 100% |
| COc1ccc(C(=O)Nc2ccc(Cl)cc2C(=O)Nc2ccncc2)cc1 | 100% | 100% | 100% | 100% |
| O=C(Nc1ccc(Cl)cc1)N1CCN(c2ccc3nncn3n2)CC1 | 100% | 100% | 100% | 100% |
| c1ccc2cc3c(Nc4ccc(N5CCOCC5)cc4)ccnc3cc2c1 | 100% | 100% | 100% | 100% |
| O=C(CSc1ccc2nnc(-c3cccc(F)c3)n2n1)Nc1ccc2c(c1)OCO2 | 100% | 100% | 100% | 100% |

| SMILES | Motility [1] | Motility [2] | Motility [3] | Motility [4] |
| --- | --- | --- | --- | --- |
| CCCCNCC(O)(c1ccc(Cl)cc1)c1ccc(Cl)cc1 | 100% | 100% | 100% | 100% |
| COc1ccccc1NC1=C(N2CCCCC2)C(=O)c2ccccc2C1=O | 100% | 100% | 100% | 100% |
| CCOC(=O)c1cn(CC)c2cc(N3CCCCC3)c(F)cc2c1=O | 100% | 100% | 100% | 100% |
| CCCc1cc(O)c2c3c(c(=O)oc2c1)CN(C)CC3 | 100% | 66.6% | 100% | 100% |
| Cc1cc(NC(=O)C2c3ccccc3C(=O)N(CC(C)C)C2c2cccs2)no1 (stereo unspecified) | 100% | 100% | 100% | 100% |
| CCn1c(SCC(=O)Nc2cc(C(F)(F)F)ccc2Cl)nc2ccccc2c1=O | 100% | 100% | 100% | 100% |
| Cc1ccc(Cn2c(N3CCC(C(=O)NCc4cccs4)CC3)nc3ccccc32)cc1 | 100% | 100% | 100% | 100% |
| O=C(Nc1ccc(Cl)cc1C(=O)Nc1ccncc1)c1ccc(Cl)cc1Cl | 100% | 100% | 100% | 100% |
| CCOc1cccc2sc(N(Cc3cccnc3)C(=O)C3CCCCC3)nc12 | 100% | 100% | 100% | 100% |
| CCOc1ccc(-c2nonc2NC(=O)c2cccc(C)c2)cc1OCC | 100% | 100% | 100% | 100% |
| CC(C)(C)CC(C)(C)NCC(O)COc1ccc2c(c1)CCC2.Cl (stereo unspecified) | 100% | 100% | 100% | 100% |
| CCOc1ccc(/C=C/c2nc(=O)c3ccccc3o2)cc1 | 100% | 100% | 100% | 100% |
| O=C(Nc1ccccc1O)c1ccc(-c2ccc(Cl)cc2Cl)o1 | 100% | 100% | 100% | 100% |
| O=C(Nc1nc(-c2ccccn2)cs1)c1ccccc1Br | 100% | 0% | 100% | 60% |
| CC(O)(c1ccc(Cl)cc1)C(CN1CCCCC1)c1ccccc1.Cl (stereo unspecified) | 100% | 66.6% | 100% | 100% |
| CCCCc1ccc(NS(=O)(=O)c2cc3c4c(c2)CCN4C(=O)CC3)cc1 | 100% | 100% | 100% | 100% |
| CCOc1ccccc1CNC(=O)C1c2ccccc2C(=O)N(CC(C)C)C1c1cccs1 (stereo unspecified) | 100% | 100% | 100% | 100% |
| COc1ccc(-c2nc3cc(Cc4ccc5[nH]c(-c6ccc(OC)cc6)nc5c4)ccc3[nH]2)cc1 | 100% | 80% | 100% | 100% |
| CCOC(=O)c1ccc2nc(-c3ccccc3)cc(O)c2c1 | 100% | 100% | 100% | 100% |
| Cc1cc(Nc2ccc(Cl)cc2)n2nc(C(F)(F)F)nc2n1 | 100% | 100% | 100% | 100% |
| CCCCCCOC(=O)C1=C(C)NC(=O)NC1c1ccccc1F (stereo unspecified) | 100% | 6% | 100% | 100% |
| COc1ccc(C2Sc3ccccc3N=C3C2=C(O)c2ccccc23)cc1 (stereo unspecified) | 100% | 100% | 100% | 100% |
| Cc1ccc(N2C3c4ccccc4N(S(=O)(=O)c4ccc(C)cc4)C2c2ccccc2N3S(=O)(=O)c2ccc(C)cc2)cc1 | 100% | 100% | 100% | 100% |
| CCN(CC)CCCNc1nc(-c2ccc(Cl)cc2)nc2ccccc12 | 100% | 66.6% | 100% | 100% |
| Cc1ccc(Nc2nc(NCCO)c3ccccc3n2)cc1C | 100% | 33.33% | 100% | 100% |
| CC1CCCCN1CCCNC(=O)c1ccc2c(c1)sc1nc(-c3ccc(F)cc3)cn12 (stereo unspecified) | 100% | 80% | 100% | 100% |
| COc1ccc(NC(=O)C2c3ccccc3C(=O)N(CC(C)C)C2c2cccs2)cc1 (stereo unspecified) | 100% | 100% | 100% | 100% |

Reference: ChEMBL document CHEMBL3137381, “MMV Box Onchocerca lienalis screening set”
